From US6413508B1, “Green leaf volatiles as synergists for insect pheromones” (The United States of America as represented by the …, priority 1988, dated 2002)

How the values were obtained:
Boll Weevils [1] = assay: Competitive field test with released weevils, four trap array; assay type: in vivo, Anthonomus grandis
Source text: The second series of experiments involved an array of four traps. […] The two treatments being tested simultaneously in this competitive arrangement were placed alternately in the traps, i.e., the two traps baited with the same treatment were located diagonally from each other. Odorants diluted in hexane were released from glass capillaries placed in small vials in a container in each trap. […] Traps were then immediately baited. In each test, traps were checked and insects were removed at 1530 hrs and 1700 hrs on the day of release, and before 0900 hrs the next day (the time at which the test was terminated) in order to remove those insects which might have responded prior to darkness on the day of release.

[2] = test system: Over-Wintered Boll Weevils; assay: Competitive field test with over-wintered boll weevils, 3 weeks; assay type: in vivo, Anthonomus grandis; conditions: trans-2-hexen-1-ol 10 mg changed weekly, grandlure Hercon wafer 2.5 mg kept 3 wk
Protocol: The efficacy of the synergist in enhancing response of over-wintered boll weevils to grandlure was evaluated during the first 3 wks of May 1988, prior to the planting of cotton. In this experiment, the synergist trans-2-hexen-1-ol at 10 mg was released from a cigarette filter, in combination with a Hercon wafer formulation of grandlure at 2.5 mg. The grandlure formulation remained in the trap for the entire 3-wk period, while the cigarette filter containing the synergist was changed each week. During both the first and second weeks, trap captures increased for both the pheromone alone and for the pheromone+the synergist, presumably reflecting increasing numbers of boll weevils emerging from over-wintering sites (Table VII). However, while trap captures continued to increase for the pheromone+synergist during the third week, the number of boll weevils captured by the pheromone alone declined.

Boll Weevils [3] = assay: Competitive field test with released weevils, triangular trap array; assay type: in vivo, Anthonomus grandis
Protocol: Two series of field tests were performed involving released boll weevils, in which grandlure was placed in competition with grandlure + the synergist. In the first series of experiments, a triangular array of traps was used. One trap was placed at each corner of a 20 m equilateral triangle (total of three traps). The three treatments released in this triangular array of traps were: 1) grandlure 3 mg; 2) grandlure 3 mg+synergist 100 mg; and 3) synergist 100 mg. The three synergists tested in these experiments were: trans-2-hexen-1-ol, 1-hexanol, and cis-3-hexen-1-ol. Cigarette filters were used to release the experimental odorants. One hundred insets (50 males and 50 females) were released along a line 20 m from each side of the triangle (300 insects total) at ca. 1000 hrs prior to baiting of the traps at 1200 hrs. Traps were check and insects were removed at 1400 hrs, 1600 hrs, and 1800 hrs, the times at which the test was terminated.

[4] = test system: Single Olfactory Cells Responsive to Volatiles Emanating from a Crushed Cotton Square; assay: Single-cell electrophysiology: action potentials from single olfactory cells; assay type: cell-based, Anthonomus grandis
Source text: Single-cell recording techniques are described in detail elswhere [Dickens, Mitt. Schweiz. Entomol. Ges. 52: 203 (1979); Dickens et al., J. Chem. Ecol. 10: 583 (1984)]. In brief, microelectrodes used for recordings were constructed from 50.8 μm diameter tungsten wire electrolytically sharpened to a tip of 1-2 μm. The recording electrode was positioned under optical control (150-200 X) with a Leitz high-power micromanipulator near either the base of one of the three sensory bands encircling the club, or the base of an individual sensillum just distal to each sensory band region. The ground electrode was inserted in either the rostrum or distal end of the scape. Action potentials were amplified and conditioned by a Grass P-15 preamplifier and Tektronix 5A22N amplifier prior to visualization on a Tektronix 5223 digitizing oscilloscope. The signal then passed through a Teac R51-D data recorder for recording on cassette tapes prior to visualization on a Tektronix 5111 analog oscilloscope. Data were photographed from the analog oscilloscope with a Tektronix C-5C oscilloscope camera. Trains of action potentials were counted visually.
Upon obtaining a single cell preparation, odorous stimuli were presented every 3 min. […] The first two stimuli tested were volatiles emanating from 1 μg of grandlure, followed by volatiles emanating from a crushed cotton square. These two stimuli served to determine whether the cell was activated by the attractive pheromone of the boll weevil and/or volatiles emanating from its food source.

Arizona boll weevils [5] = assay: Arizona initial field experiment, 24 traps in a straight line, four treatments; assay type: in vivo, Anthonomus grandis; conditions: 1, 10, 100 mg with grandlure 1 mg
Protocol: Since boll weevils in this region differ genetically from those in the southeastern United States [Burke, Texas Agric. Exp. Sta. Tech. Rep., 152 pp. (1968)], these tests were performed to determine if green leaf volatiles would also enhance capture of Arizona boll weevils in traps baited with the aggregation pheromone.
In the initial field experiment, 24 traps were placed 30 m apart in a straight line along a road near Phoenix and were baited with four different treatments: 1) grandlure 1 mg; 2) grandlure 1 mg+trans-2-hexen-1-ol 1 mg; 3) grandlure 1 mg+trans-2-hexen-1-ol 10 mg; 4) grandlure 1 mg+trans-2-hexen-1-ol 100 mg. All compounds were released from cigarette filters after mixing in a solution to retard their rate of release, as previously described [McKibben et al., supra]. Treatments were arranged in six blocks with the four treatments randomized within each block. Traps were checked the next day.

Arizona boll weevils [6] = assay: Arizona third field experiment, traps around 20 cotton fields; assay type: in vivo, Anthonomus grandis; conditions: grandlure 5 mg + trans-2-hexen-1-ol 10 mg
Protocol: In a third field experiment, 20 cotton fields were selected. Three traps were placed at least 100 m apart along the edge of each field (60 traps total). The three traps were baited with one of the following treatments: 1) a 10-mg grandlure “Hercon” wafer; 2) 5 mg of grandlure in the same “Hercon” formulation; 3) the 5-mg grandlure
formulation+10 mg of trans-2-hexen-1-ol. The traps were checked daily and weevils were removed for the next 2 days.

Boll Weevils [7] = assay: Competitive field tests in Mississippi cotton fields, 4-week test period; assay type: in vivo, Anthonomus grandis; conditions: 10 mg and 100 mg, P<0.01, paired t-test
Protocol: Three cotton fields were used in this study to determine the effectiveness of trans-2-hexen-1-ol in synergizing grandlure in a practical situation. The experimental design consisted of placing four traps at the corners of a 20-m square within a cotton field of ca. 1 acre. Four additional traps were placed a few meters outside the cotton field, located near imaginary diagonal lines extending through the corners of the square within the field. Each trap contained a cigarette filter with 1 mg of grandlure. Cigarette filters containing trans-2-hexen-1-ol were placed alternately in the traps. The result resembled an “X” array of traps placed across each field with each arm of the “X” consisting of four traps, two within and two outside of the field. Traps within one arm contained grandlure 1 mg alone; those within the other arm were baited with grandlure 1 mg+trans-2-hexen-1-ol at a particular dosage. Only one dosage of the synergist occurred in each field. Dosages of trans-2-hexen-1-ol tested were: 1 mg, 10 mg, and 100 mg. Traps were freshly baited each week and checked daily at 1500 hrs for 3 days and at the end of the week.

[8] = volatiles emanating from 1 μg of odorant, cell responsive to crushed cotton square

CCC/C=C/CO [trans-2-hexen-1-ol]
trap capture in combination with grandlure (0.8 mg) in competition with grandlure (0.8 mg) alone (Boll Weevils [1]; 0.1 mg, P<0.10, paired t-test): increased trap capture
synergism with grandlure (0.8 mg) in competition with grandlure (0.8 mg) alone (Boll Weevils [1]; 1.0 mg of the compound): even more apparent
effectiveness in combination with grandlure (0.8 mg) vs the combination with 1-hexanol (Boll Weevils [1]; each presented with grandlure 0.8 mg in a competitive experiment): more effective
effect of the synergist on effectiveness of the pheromone with time [2]: extend the effectiveness of the pheromone
% Total (Boll Weevils [3]; grandlure 3 mg vs trans-2-hexen-1-ol 100 mg vs both): 5.9%
Mean Trap Capture (Boll Weevils [3]; grandlure 3 mg vs trans-2-hexen-1-ol 100 mg vs both, three replicates): 1.3 A
activity alone in competition with the other treatments (Boll Weevils [3]; triangular array, 100 mg alone): relatively inactive
attraction of grandlure on addition of the compound, relative to grandlure alone (Boll Weevils [3]; triangular array, grandlure 3 mg, synergist 100 mg): significantly increased
response of cells activated by volatiles from the crushed cotton square ([4]; single olfactory cells): activated
Response in impulses/initial 500 msec, Cell #1 [4, 8]: 83 impulses/initial 500 msec
Response in impulses/initial 500 msec, Cell #2 [4, 8]: 67 impulses/initial 500 msec
Response in impulses/initial 500 msec, Cell #3 [4, 8]: 50 impulses/initial 500 msec
Response in impulses/initial 500 msec, Cell #4 [4, 8]: 33 impulses/initial 500 msec
effect of addition on trap capture over grandlure alone (Arizona boll weevils [5]): enhanced trap capture
effect of addition to grandlure on attractiveness over the 10-mg grandlure treatment (Arizona boll weevils [6]): enhanced its attractiveness
weevils captured in combination with grandlure 1 mg vs grandlure alone at 1 mg (Boll Weevils [7]): captured more weevils of both sexes
